Source: ChEMBL document CHEMBL1147994 (Bioorg Med Chem Lett, 2007)

What was measured:
Dipeptidyl peptidase 8 = Dipeptidyl peptidase 8 (Homo sapiens, UniProt Q6V1X1); assay: Inhibition of DPP8
Dipeptidyl peptidase 9 = Dipeptidyl peptidase 9 (Homo sapiens, UniProt Q86TI2); assay: Inhibition of DPP9
Dipeptidyl peptidase 2 = Dipeptidyl peptidase 2 (Homo sapiens, UniProt Q9UHL4); assay: Inhibition of QPP

Measured: IC50

Sequence of Dipeptidyl peptidase 9 (Q86TI2 whole entry): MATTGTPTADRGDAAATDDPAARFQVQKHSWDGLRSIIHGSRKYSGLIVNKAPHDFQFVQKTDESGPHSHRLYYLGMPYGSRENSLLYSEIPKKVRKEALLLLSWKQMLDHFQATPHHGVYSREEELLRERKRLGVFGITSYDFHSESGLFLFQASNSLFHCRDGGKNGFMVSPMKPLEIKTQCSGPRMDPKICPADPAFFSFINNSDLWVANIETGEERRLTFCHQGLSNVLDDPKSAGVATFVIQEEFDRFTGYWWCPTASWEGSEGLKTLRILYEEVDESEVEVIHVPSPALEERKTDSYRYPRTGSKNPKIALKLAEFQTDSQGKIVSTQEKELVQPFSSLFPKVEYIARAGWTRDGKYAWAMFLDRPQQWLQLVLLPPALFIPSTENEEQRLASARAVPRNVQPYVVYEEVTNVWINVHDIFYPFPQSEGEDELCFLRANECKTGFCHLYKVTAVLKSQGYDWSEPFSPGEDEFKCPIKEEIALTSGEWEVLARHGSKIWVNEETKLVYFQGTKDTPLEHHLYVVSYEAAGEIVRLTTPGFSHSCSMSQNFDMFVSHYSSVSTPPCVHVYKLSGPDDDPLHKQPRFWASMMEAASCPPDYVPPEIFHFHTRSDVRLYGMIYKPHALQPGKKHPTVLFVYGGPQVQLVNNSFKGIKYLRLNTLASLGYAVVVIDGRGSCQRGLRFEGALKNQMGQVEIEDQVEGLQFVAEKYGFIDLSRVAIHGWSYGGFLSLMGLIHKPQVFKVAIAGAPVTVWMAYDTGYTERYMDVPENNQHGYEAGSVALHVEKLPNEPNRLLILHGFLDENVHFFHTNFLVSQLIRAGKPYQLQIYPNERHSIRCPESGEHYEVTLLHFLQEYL
Sequence of Dipeptidyl peptidase 8 (Q6V1X1 whole entry): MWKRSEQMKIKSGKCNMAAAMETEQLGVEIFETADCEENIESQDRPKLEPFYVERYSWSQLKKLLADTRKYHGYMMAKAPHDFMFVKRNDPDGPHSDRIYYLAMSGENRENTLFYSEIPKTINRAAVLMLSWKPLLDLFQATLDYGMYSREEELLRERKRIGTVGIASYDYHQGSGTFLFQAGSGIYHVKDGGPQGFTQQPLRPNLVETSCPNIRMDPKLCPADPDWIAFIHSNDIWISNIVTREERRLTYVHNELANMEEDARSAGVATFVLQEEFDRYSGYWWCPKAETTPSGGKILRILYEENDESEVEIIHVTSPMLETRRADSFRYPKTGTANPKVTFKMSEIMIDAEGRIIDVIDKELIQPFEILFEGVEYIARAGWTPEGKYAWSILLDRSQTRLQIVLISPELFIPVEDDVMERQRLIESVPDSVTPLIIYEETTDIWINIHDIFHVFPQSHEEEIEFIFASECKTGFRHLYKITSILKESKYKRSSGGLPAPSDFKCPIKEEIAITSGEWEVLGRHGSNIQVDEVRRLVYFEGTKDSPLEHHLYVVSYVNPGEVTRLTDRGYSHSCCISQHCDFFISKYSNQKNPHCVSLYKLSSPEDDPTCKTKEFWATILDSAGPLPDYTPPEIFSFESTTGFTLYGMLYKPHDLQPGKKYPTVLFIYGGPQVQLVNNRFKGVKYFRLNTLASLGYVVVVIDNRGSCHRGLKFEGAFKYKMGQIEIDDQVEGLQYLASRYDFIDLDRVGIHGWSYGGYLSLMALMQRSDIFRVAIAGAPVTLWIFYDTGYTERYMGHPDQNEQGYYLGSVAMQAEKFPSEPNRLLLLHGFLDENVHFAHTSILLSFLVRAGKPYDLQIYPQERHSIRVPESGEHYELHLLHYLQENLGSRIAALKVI

N[C@H]1C[C@H](N2CCn3c(nnc3C(F)(F)F)C2)CC[C@@H]1c1cc(F)c(F)cc1F
> 100 µM: all assays above
